Experimental data reported in publication PMC9482650, “Quantitative fragmentomics allow affinity mapping of interactomes” (Nature Communications, 2022).
pKd: −log10 of the molar value. Where two headings read alike, the source gives them in different places. Primed or numbered codes have the meaning given here. Ends that are not written are not given here. * marks the point of attachment. Biotin = O=C1N[C@H]2[C@H](CS[C@H]2CCCCC(=O)*)N1; ttds″ = trioxatridecan-succinamic acid linker

Assays:
[1] = biological target: SNX27 PDZ (Homo sapiens, UniProt Q96L92); assay: Holdup assay; type: binding
[2] = biological target: DLG1_2 PDZ (Homo sapiens, UniProt Q12959); assay: Holdup assay; type: binding
[3] = biological target: DLG1_1 PDZ (Homo sapiens, UniProt Q12959); assay: Holdup assay; type: binding
[4] = biological target: SCRIB_1 PDZ (Homo sapiens, UniProt Q14160); assay: Holdup assay; type: binding
Sequence of SCRIB_1 PDZ (Q14160 728-815 limits assumed): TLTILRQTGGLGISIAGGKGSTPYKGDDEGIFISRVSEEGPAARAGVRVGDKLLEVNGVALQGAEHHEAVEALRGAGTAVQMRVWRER

[5] = biological target: T1, TX1BP3 PDZ (Homo sapiens, UniProt O14907); assay: Holdup assay; type: binding
T1 sequence (O14907 15-112 limits assumed): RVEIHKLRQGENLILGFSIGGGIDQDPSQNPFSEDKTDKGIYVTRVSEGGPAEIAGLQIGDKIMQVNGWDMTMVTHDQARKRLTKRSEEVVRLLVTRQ

[6] = biological target: T2, SCRIB2 PDZ (Homo sapiens, UniProt Q14160); assay: Holdup assay; type: binding
T2 sequence (Q14160 862-950 limits assumed): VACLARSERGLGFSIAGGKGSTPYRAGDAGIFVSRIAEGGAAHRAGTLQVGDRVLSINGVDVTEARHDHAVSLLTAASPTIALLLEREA

[7] = system: DLG1; assay: PBM-AP-MS from Jurkat extract; type: binding, Homo sapiens
Description: (§1) For PBM-AP-MS experiments, 30 μl streptavidin resin was mixed with biotin or peptide at 50–60 μM concentration in 6–6.5 resin volume for 60 min to achieve resin saturation. For PDZ-AP-MS experiments, 30 μl streptavidin resin was mixed with biotinylated MBP or MBP-PDZ at 40-50 μM concentration in >1000× resin volume for 60 min to achieve resin saturation. After saturation, resins were washed a single time (ten resin volume, holdup buffer), and were depleted with biotin (1 mM biotin, 5–10 resin volume, 10 min). Finally, resins were washed two times. 0.5 ml 2 mg/ml cell lysate was added to the dry resin (1 mg total input) and were incubated at 4 °C for 2 h. Then, the beads were washed three times with 10 resin volume buffer containing: 50 mM TRIS pH 8.5, 150 mM NaCl, 1% TritonX-100, 10× complete EDTA-free protease inhibitor cocktail, 2 mM EDTA, 1 mM TCEP. Then, the beads were washed two times with ten resin volume buffer containing: 50 mM TRIS pH 8.5, 150 mM NaCl, 1 mM TCEP. Finally, captured protein was eluted from the resin in two steps and the eluted fractions were pooled. For each elution the beads were incubated for 30 min with three resin volume buffer containing: 20 mM TRIS pH8.5, 100 mM NaCl, 500 μM TCEP, 8 M Urea. Between each step, the beads were separated by mild centrifugation and the supernatant was removed by gentle pipetting.
(§2) Proteins were identified by database searching using SequestHT (Thermo Fisher Scientific) with Proteome Discoverer 2.4 software (PD2.4, Thermo Fisher Scientific) on human FASTA database downloaded from SwissProt (reviewed, release 2020_11_27, 20304 entries, https://www.uniprot.org/). Precursor and fragment mass tolerances were set at 7 ppm and 0.6 Da respectively, and up to two missed cleavages were allowed. Oxidation (M, +15.995 Da) was set as variable modification, and Carbamidomethylation (C, +57.021 Da) as fixed modification. Peptides and proteins were filtered with a false discovery rate at 1%. Label-free quantification was based on the extracted ion chromatography intensity of the peptides. All samples were measured in technical triplicates. The measured extracted ion chromatogram (XIC) intensities were normalized based on median intensities of the entire dataset to correct minor loading differences. For statistical tests and enrichment calculations, not detectable intensity values were treated with an imputation method, where the missing values were replaced by random values similar to the 10% of the lowest intensity values present in the entire dataset. Unpaired two-tailed T-test, assuming equal variance, were performed on obtained log2 XIC intensities. The detection threshold for enriched proteins in AP-MS experiments were analyzed above twofold enrichment with <0.01 P value. Then, proteins with PDZ-domains or PBMs were extracted from the list of enriched proteins. In case only a specific isoform of the detected protein contains a PBM, the identified peptide fragments were manually checked to check which isoform(s) were most likely detected. All raw LC-MS/MS data (from 165 runs) have been deposited to the ProteomeXchange via the PRIDE database with identifier PXD027743.

[8] = system: LIN7C; assay: PBM-AP-MS from Jurkat extract; type: binding, Homo sapiens
Description: as §1, §2

[9] = system: MAGI1; assay: PBM-AP-MS from Jurkat extract; type: binding, Homo sapiens
Description: as §1, §2

[10] = system: SCRIB; assay: PBM-AP-MS from Jurkat extract; type: binding, Homo sapiens
Description: as §1, §2

[11] = system: LGALS7; assay: PBM-AP-MS from Jurkat extract; type: binding, Homo sapiens; conditions: prey LGALS7 (P47929), PBM bait vs biotin control
Description: Supplement 41467_2022_33018_MOESM5_ESM.xlsx, sheet "Jurkat HPV82-E6" | column: -LOG(P-Value); Difference log2; Ratio HPV82/biot

[12] = system: LIN7C; assay: PBM-AP-MS from HeLa extract; type: binding, Homo sapiens; conditions: prey LIN7C (Q9NUP9), PBM bait vs biotin control
[13] = system: SCRIB; assay: PBM-AP-MS from HeLa extract; type: binding, Homo sapiens; conditions: prey SCRIB (Q14160), PBM bait vs biotin control
[14] = system: CPVL; assay: PBM-AP-MS from HeLa extract; type: binding, Homo sapiens; conditions: prey CPVL (Q9H3G5), PBM bait vs biotin control
[15] = system: KRT83; assay: PBM-AP-MS from HeLa extract; type: binding, Homo sapiens; conditions: prey KRT83 (P78385), PBM bait vs biotin control
Description: (§3) Supplement 41467_2022_33018_MOESM5_ESM.xlsx, sheet "HeLa HPV82-E6" | column: -LOG(P-Value); Difference log2; Ratio HPV82E6/Biot

[16] = system: MPP7; assay: PBM-AP-MS from HeLa extract; type: binding, Homo sapiens; conditions: prey MPP7 (Q5T2T1), PBM bait vs biotin control
Description: as §3

[17] = system: CASK; assay: PBM-AP-MS from Jurkat extract; type: binding, Homo sapiens; conditions: Jurkat lysate
Description: as §1, §2

[18] = system: SNTB2; assay: PBM-AP-MS from HeLa extract; type: binding, Homo sapiens; conditions: prey SNTB2 (Q13425), PBM bait vs biotin control
[19] = system: PDZK1; assay: PBM-AP-MS from HeLa extract; type: binding, Homo sapiens; conditions: prey PDZK1 (Q5T2W1), PBM bait vs biotin control
[20] = system: LIN7C; assay: PBM-AP-MS from HaCat extract; type: binding, Homo sapiens; conditions: prey LIN7C (Q9NUP9), PBM bait vs biotin control (Biot03)
[21] = system: CASK; assay: PBM-AP-MS from HaCat extract; type: binding, Homo sapiens; conditions: prey CASK (O14936), PBM bait vs biotin control (Biot03)
[22] = system: MPP7; assay: PBM-AP-MS from HaCat extract; type: binding, Homo sapiens; conditions: prey MPP7 (Q5T2T1), PBM bait vs biotin control (Biot03)
[23] = system: SYNJ2BP; assay: PBM-AP-MS from HaCat extract; type: binding, Homo sapiens; conditions: prey SYNJ2BP (P57105), PBM bait vs biotin control (Biot03)
[24] = system: SLC9A3R2; assay: PBM-AP-MS from HaCat extract; type: binding, Homo sapiens; conditions: prey SLC9A3R2 (Q15599), PBM bait vs biotin control (Biot03)
[25] = PBM motif of the named protein vs DLG1_2 PDZ, read-out: pKd values – domain-motif, DLG1_2 (converted)
[26] = PBM motif of the named protein vs DLG1_1 PDZ, read-out: pKd values – domain-motif, DLG1_1 (converted)
[27] = PBM motif of the named protein vs SCRIB_1 PDZ, read-out: pKd values – domain-motif, SCRIB_1 (converted)
[28] = PBM motif of the named protein vs TX1BP3 PDZ, read-out: pKd values – domain-motif, TX1BP3 (converted)
[29] = PBM motif of the named protein vs SCRIB_2 PDZ, read-out: pKd values – domain-motif, SCRIB_2 (converted)
[30] = holdup affinity of the PBM peptide of the named protein, sheet PBMcomplexome, lower sub-table
[31] = holdup affinity of the PBM peptide of the named protein, sheet PBMcomplexome, lower sub-table, 3.5 appears to be the floor for no detectable binding, read-out: affinity of PBM to DLG1_2 (pKd) (converted)
[32] = holdup affinity of the PBM peptide of the named protein, sheet PBMcomplexome, lower sub-table, 3.5 appears to be the floor for no detectable binding, read-out: affinity of PBM to SCRIB_1 (pKd) (converted)
[33] = holdup affinity of the PBM peptide of the named protein, sheet PBMcomplexome, lower sub-table, 3.5 appears to be the floor for no detectable binding, read-out: affinity of PBM to TX1BP3 (pKd) (converted)
[34] = holdup affinity of the PBM peptide of the named protein, sheet PBMcomplexome, lower sub-table, 3.5 appears to be the floor for no detectable binding, read-out: affinity of PBM to SCRIB_2 (pKd) (converted)
[35] = Jurkat extract, prey DLG1 (Q12959), PBM bait vs biotin control
[36] = Jurkat extract, prey LIN7C (Q9NUP9), PBM bait vs biotin control
[37] = Jurkat extract, prey MAGI1 (Q96QZ7), PBM bait vs biotin control
[38] = Jurkat extract, prey SCRIB (Q14160), PBM bait vs biotin control
[39] = fold enrichment of prey vs biotin control resin, Jurkat lysate
[40] = prey enrichment on PBM bait resin vs biotin control resin, Jurkat lysate, technical triplicates

PELESKESVL [SLC1A4]
pKd [1]: 5.43
Kd [2, 25]: 91.2 µM
Kd [3, 26]: 309 µM
Kd [4, 27]: 66.1 µM
Kd [5, 28]: 79.4 µM

PKRSFIESNV [TANC1]
pKd [1]: 5.51
Kd [2, 25]: 11 µM
Kd [3, 26]: 20.4 µM
Kd [4, 27]: 6.31 µM
Kd [5, 28]: 1.91 µM
Kd [6, 29]: 13.2 µM

LCALPKVTTV [AGMAT]
pKd [1]: 4.43
Kd [2, 25]: 1.35 µM
Kd [3, 26]: 10.7 µM
Kd [4, 27]: 40.7 µM
Kd [5, 28]: 85.1 µM

KQVVPFSSSV [GDA]
pKd [1]: 3.53
Kd [2, 25]: 41.7 µM
Kd [3, 26]: 129 µM
Kd [4, 27]: 309 µM
Kd [5, 28]: 49 µM

CC(C)C[C@H](NC(=O)[C@H](CC(=O)O)NC(=O)[C@@H](NC(=O)[C@H](CC(=O)O)NC(=O)[C@H](Cc1ccccc1)NC(=O)[C@H](Cc1c[nH]c2ccccc12)NC(=O)[C@H](C)NC(=O)[C@H](CC(C)C)NC(=O)[C@H](CCC(N)=O)NC(=O)[C@@H](N)CC(N)=O)[C@@H](C)O)C(=O)O [CTNNB1]
pKd [1]: 4.91
Kd [4, 27]: 13.8 µM
Kd [5, 28]: 1.02 µM
Kd [6, 29]: 269 µM

IKAIVDLTGL [TRAF2]
pKd [1, 30]: 3.51

GYDWGPATDL [TJP3/ZO3]
pKd [1, 30]: 3.64
Kd [2, 31]: 245 µM
Kd [4, 32]: 174 µM
Kd [5, 33]: 40.7 µM
Kd [6, 34]: 166 µM

HPV82-E6 ({Biotin-ttds″}-PPRQRSETQV)
Difference log2 [7, 35]: 8.838
Ratio bait/biot [7, 35]: 457.64
Difference log2 [8, 36]: 5.109
Ratio bait/biot [8, 36]: 34.5003
Difference log2 [9, 37]: 5.746
Ratio bait/biot [9, 37]: 53.6695
Difference log2 [10, 38]: 7.318
Ratio bait/biot [10, 38]: 159.61
Difference log2 [11]: 4.513
Ratio bait/biot [11]: 22.8362
Difference log2 [12]: 7.066
Ratio bait/biot [12]: 134.006
Difference log2 [13]: 7.349
Ratio bait/biot [13]: 163.074
Difference log2 [14]: 3.939
Ratio bait/biot [14]: 15.3339
Difference log2 [15]: 3.605
Ratio bait/biot [15]: 12.1643
Difference log2 [16]: 3.556
Ratio bait/biot [16]: 11.7654

PRVKPQRSKV [PPP1R13L]
Kd [5, 28]: 151 µM

SSRTRRETQL [HPV16-E6]
Ratio bait/biot ([17]; fold enrichment of prey vs biotin control resin): 11.3007
Difference log2 ([17]; prey enrichment on PBM bait resin vs biotin control resin, technical triplicates): 3.498
Ratio bait/biot [7, 39]: 502.402
Difference log2 [7, 40]: 8.9727
Ratio bait/biot [8, 39]: 32.0459
Difference log2 [8, 40]: 5.002
Ratio bait/biot [9, 39]: 36.8169
Difference log2 [9, 40]: 5.2023
Ratio bait/biot [10, 39]: 256.729
Difference log2 [10, 40]: 8.0041
Difference log2 [12]: 7.182
Ratio bait/biot [12]: 145.232
Difference log2 [13]: 7.71
Ratio bait/biot [13]: 209.394
Difference log2 [18]: 5.25
Ratio bait/biot [18]: 38.0503
Difference log2 [14]: 4.342
Ratio bait/biot [14]: 20.282
Difference log2 [19]: 4.4
Ratio bait/biot [19]: 21.1168
Difference log2 [20]: 8.385
Ratio bait/Biot03 [20]: 334.203
Difference log2 [21]: 6.666
Ratio bait/Biot03 [21]: 101.558
Difference log2 [22]: 5.9997
Ratio bait/Biot03 [22]: 63.9865
Difference log2 [23]: 4.095
Ratio bait/Biot03 [23]: 17.0893
Difference log2 [24]: 3.853
Ratio bait/Biot03 [24]: 14.4499

KIEDVEITLV [FCHSD2]
pKd [1]: 5.01
Kd [2, 25]: 50.1 µM
Kd [3, 26]: 162 µM
Kd [4, 27]: 158 µM
Kd [5, 28]: 105 µM

PKRPFVESNV [TANC2]
pKd [1, 30]: 4.80
Kd [2, 31]: 22.4 µM
Kd ([3]; holdup affinity of the PBM peptide of the named protein, sheet PBMcomplexome, lower sub-table, 3.5 appears to be the floor for no detectable binding, read-out: affinity of PBM to DLG1_1 (pKd) (converted)): 49 µM
Kd [4, 32]: 17.8 µM
Kd [5, 33]: 1.26 µM
Kd [6, 34]: 25.7 µM

LESTTVGTSV [KARS1]
pKd [1]: 4.45
Kd [2, 25]: 45.7 µM
Kd [3, 26]: 53.7 µM
Kd [4, 27]: 155 µM
Kd [5, 28]: 251 µM
Kd [6, 29]: 34.7 µM

TESNLQTSSC [CGN]
pKd [1]: 4.65
